26 compounds from ChEMBL document CHEMBL1154105, “Optimization of peptide-based inhibitors of prostate-specific antigen (PSA) as targeted imaging agents for prostate cancer” (Bioorg Med Chem, 2009) can be followed below.

Assay [1] concerns the target T1, Prostate-specific antigen (Homo sapiens, UniProt P07288).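 Note: Fluorescence-based readout of substrate cleavage by prostate-specific antigen, used to gauge enzyme inhibition.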
T1 sequence (P07288 whole entry): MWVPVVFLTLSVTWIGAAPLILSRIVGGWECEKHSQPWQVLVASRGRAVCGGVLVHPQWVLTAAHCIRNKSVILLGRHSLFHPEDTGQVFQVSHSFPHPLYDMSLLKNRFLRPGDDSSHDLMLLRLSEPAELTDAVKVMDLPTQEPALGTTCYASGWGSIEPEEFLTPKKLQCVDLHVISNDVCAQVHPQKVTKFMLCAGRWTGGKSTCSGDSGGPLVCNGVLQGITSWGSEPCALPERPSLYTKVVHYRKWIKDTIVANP
The assay is described as follows: biochemical. In kind it is tissue-based, Prostate gland.
Description: Inhibition of prostate-specific antigen assessed as substrate hydrolysis by fluorescence assay

Assay [2] in a line: Selectivity ratio of Ki for chymotrypsin to Ki for prostate-specific antigen. Conditions: Prostate gland.

Structures are written as SMILES. Starred links: 1 amine or outer side, 2 acyl side, 3 side chain; linkers in the order of their positions; H or OH if unused. Non-standard residues stand in square brackets, D forms with d. Residues, ends and D or L forms follow the SMILES beside them. *: point of attachment. Ala(imidazol-2-yl) = N[C@@H](Cc1ncc[nH]1)C(=O)O; X2 = C[C@@H](C(=O)[*:2])N(c1ccc2ccccc2c1)[*:1]; Phe(4-Br) = N[C@@H](Cc1ccc(Br)cc1)C(=O)O; N(cHex)Ala = C[C@H](NC1CCCCC1)C(=O)O; Pro(3R-OH) = O=C(O)[C@H]1NCC[C@H]1O; hIle = CC[C@H](C)C[C@H](N)C(=O)O; Met(O) = CS(=O)CC[C@H](N)C(=O)O; boroLeu = CC(C)C[C@H](N*)B(O)O; NPhGly = O=C(O)CNc1ccccc1; Cbz = O=C(OCc1ccccc1)*; tBu = CC(C)(C)*

One may read the Ki as the dissociation constant of the complex between target and ligand, obtained from inhibition or displacement. Low readings indicate a stronger hold on the target, high ones a looser hold on the target. In assay [1], `CC(C)C[C@@H](C=O)NC(=O)[C@H](Cc1ncc[nH]1)NC(=O)[C@H](CCCCN)NC(=O)[C@H](CO)NC(=O)[C@H](CO)NC(=O)OCc1ccccc1` (Cbz-SSK[Ala(imidazol-2-yl)]L-aldehyde) showed a Ki of 18.6 µM.

Take `CC(C)C[C@@H](C=O)NC(=O)[C@H](CC(C)C)NC(=O)[C@H](C)N(C(=O)[C@H](CO)NC(=O)[C@H](CO)NC(=O)OCc1ccccc1)C1CCCCC1` (Cbz-SS[N(cHex)Ala]LL-aldehyde): in assay [1], the Ki turned out to be 13.1 µM.

In turn, `CC(C)C[C@@H](C=O)NC(=O)[C@@H](NC(=O)[C@H](CCCCN)NC(=O)[C@H](CO)NC(=O)[C@H](CO)NC(=O)OCc1ccccc1)C(C)C` (Cbz-SSKVL-aldehyde) returned a Ki in assay [1] of over 50 µM.

On to `CC(C)C[C@@H](C=O)NC(=O)[C@@H]1CCCN1C(=O)[C@H](CCCCN)NC(=O)[C@H](CO)NC(=O)[C@H](CO)NC(=O)OCc1ccccc1` (Cbz-SSKPL-aldehyde), for which the Ki in assay [1] was over 500 µM.

Consider `CC(C)C[C@@H](C=O)NC(=O)[C@@H]1[C@H](O)CCN1C(=O)[C@H](CCCCN)NC(=O)[C@H](CO)NC(=O)[C@H](CO)NC(=O)OCc1ccccc1` (Cbz-SSK[Pro(3R-OH)]L-aldehyde), for which, in assay [1], the Ki is over 500 µM.

`CC(C)C[C@@H](C=O)NC(=O)CN(C(=O)[C@H](CCCCN)NC(=O)[C@H](CO)NC(=O)[C@H](CO)NC(=O)OCc1ccccc1)c1ccccc1` (Cbz-SSK[NPhGly]L-aldehyde) displayed a Ki in assay [1] of over 50 µM.

`CC(C)C[C@@H](C=O)NC(=O)[C@H](CCCCN)NC(=O)[C@H](CCCCN)NC(=O)[C@H](CO)NC(=O)[C@H](CO)NC(=O)OCc1ccccc1` (Cbz-SSKKL-aldehyde) yielded a Ki in assay [1] of over 50 µM.

On to `CSCC[C@H](NC(=O)[C@H](CO)NC(=O)[C@H](CO)NC(=O)OCc1ccccc1)C(=O)N[C@@H](CC(C)C)C(=O)N[C@H](C=O)CC(C)C` (Cbz-SSMLL-aldehyde), for which the affinity in assay [1] corresponds to a Ki of 7.5 µM.

For `CC(C)C[C@@H](C=O)NC(=O)[C@H](C)N(C(=O)[C@H](CCCCN)NC(=O)[C@H](CO)NC(=O)[C@H](CO)NC(=O)OCc1ccccc1)c1ccc2ccccc2c1` (Cbz-SSK[X2]L-aldehyde), the Ki in assay [1] was over 100 µM.

The compound `CC(C)C[C@@H](C=O)NC(=O)[C@H](CC(C)C)NC(=O)[C@H](CCC(N)=O)NC(=O)[C@H](CO)NC(=O)[C@H](CO)NC(=O)OCc1ccccc1` (Cbz-SSQLL-aldehyde) showed a Ki in assay [1] of 3.9 µM. That is a single-digit micromolar value.

Take `CC(C)C[C@@H](C=O)NC(=O)[C@H](CO)NC(=O)[C@H](CCCCN)NC(=O)[C@H](CO)NC(=O)[C@H](CO)NC(=O)OCc1ccccc1` (Cbz-SSKSL-aldehyde): in assay [1], the Ki is over 50 µM.

As to `CC(C)C[C@@H](C=O)NC(=O)[C@H](C)N(C(=O)[C@H](CCCCN)NC(=O)[C@H](CO)NC(=O)[C@H](CO)NC(=O)OCc1ccccc1)C1CCCCC1` (Cbz-SSK[N(cHex)Ala]L-aldehyde), the Ki in assay [1] is over 50 µM.

On to `CC(C)C[C@@H](C=O)NC(=O)[C@H](CC(C)C)NC(=O)[C@@H]1CCCN1C(=O)[C@H](CO)NC(=O)[C@H](CO)NC(=O)OCc1ccccc1` (Cbz-SSPLL-aldehyde), for which the inhibition constant (Ki) in assay [1] is over 1000 µM.

In the case of `CC(C)C[C@@H](C=O)NC(=O)[C@H](CC(=O)O)NC(=O)[C@H](CCCCN)NC(=O)[C@H](CO)NC(=O)[C@H](CO)NC(=O)OCc1ccccc1` (Cbz-SSKDL-aldehyde), the Ki in assay [1] was over 1000 µM.

In the case of `CC(C)C[C@@H](C=O)NC(=O)[C@H](CC(C)C)NC(=O)CNC(=O)[C@H](CO)NC(=O)[C@H](CO)NC(=O)OCc1ccccc1` (Cbz-SSGLL-aldehyde), the Ki in assay [1] is over 1000 µM.

Regarding `CC(C)C[C@@H](C=O)NC(=O)[C@H](CCC(N)=O)NC(=O)[C@H](CCCCN)NC(=O)[C@H](CO)NC(=O)[C@H](CO)NC(=O)OCc1ccccc1` (Cbz-SSKQL-aldehyde), the Ki in assay [1] worked out at 21.8 µM.

`CC(C)C[C@@H](C=O)NC(=O)CNC(=O)[C@H](CCCCN)NC(=O)[C@H](CO)NC(=O)[C@H](CO)NC(=O)OCc1ccccc1` (Cbz-SSKGL-aldehyde): the Ki in assay [1] is over 1000 µM.

In assay [1], `CC(C)C[C@@H](C=O)NC(=O)[C@H](CSC(C)(C)C)NC(=O)[C@H](CCCCN)NC(=O)[C@H](CO)NC(=O)[C@H](CO)NC(=O)OCc1ccccc1` (Cbz-SSKC(tBu)L-aldehyde) displayed a Ki of over 50 µM.

For `CC(C)C[C@@H](C=O)NC(=O)[C@H](C)NC(=O)[C@H](CCCCN)NC(=O)[C@H](CO)NC(=O)[C@H](CO)NC(=O)OCc1ccccc1` (Cbz-SSKAL-aldehyde), the Ki in assay [1] is over 100 µM.

Consider `CC(C)C[C@@H](C=O)NC(=O)[C@H](CC(C)C)NC(=O)[C@H](CCC(=O)O)NC(=O)[C@H](CO)NC(=O)[C@H](CO)NC(=O)OCc1ccccc1` (Cbz-SSELL-aldehyde), for which the Ki in assay [1] is over 1000 µM.

Consider `CC[C@H](C)C[C@H](NC(=O)[C@H](CCCCN)NC(=O)[C@H](CO)NC(=O)[C@H](CO)NC(=O)OCc1ccccc1)C(=O)N[C@H](C=O)CC(C)C` (Cbz-SSK[hIle]L-aldehyde), for which the Ki in assay [1] amounted to 37.4 µM.

`CC(C)C[C@@H](C=O)NC(=O)[C@H](Cc1ccc(Br)cc1)NC(=O)[C@H](CCCCN)NC(=O)[C@H](CO)NC(=O)[C@H](CO)NC(=O)OCc1ccccc1` (Cbz-SSK[Phe(4-Br)]L-aldehyde) showed a Ki in assay [1] of over 500 µM.

As for `CC(C)C[C@H](NC(=O)[C@H](CC(C)C)NC(=O)[C@H](CCCCN)NC(=O)[C@H](CO)NC(=O)[C@H](CO)NC(=O)OCc1ccccc1)B(O)O` (Cbz-SSKL-boroLeu), in assay [2], the Ratio Ki was 60.

In assay [1], `CC(C)C[C@@H](C=O)NC(=O)[C@H](CC(C)C)NC(=O)[C@H](CC[S+](C)[O-])NC(=O)[C@H](CO)NC(=O)[C@H](CO)NC(=O)OCc1ccccc1` (stereo partly specified) (Cbz-SS[Met(O)]LL-aldehyde) yielded a Ki of 25.9 µM.

The compound `CC(C)C[C@@H](C=O)NC(=O)[C@H](CC(C)C)NC(=O)[C@H](CC(N)=O)NC(=O)[C@H](CO)NC(=O)[C@H](CO)NC(=O)OCc1ccccc1` (Cbz-SSNLL-aldehyde) gave a Ki in assay [1] of 18.2 µM.

Compound `CC(C)C[C@@H](C=O)NC(=O)[C@H](CC(C)C)NC(=O)[C@@H](NC(=O)[C@H](CO)NC(=O)[C@H](CO)NC(=O)OCc1ccccc1)[C@@H](C)O` (Cbz-SSTLL-aldehyde) showed a Ki in assay [1] of 43.8 µM.
